Each block holds one compound with its values, some of them ahead of it.
How the values were obtained:
[1] = system: PGE2 formation in human whole blood; assay: PGE2 formation in LPS-stimulated human whole blood (in vitro incubation); type: cell-based; settings: LPS 10 µg/ml, 18 hours; for inhibition of PGE2 formation: alone or in combination; for inhibition of PGE2 compared with 6-keto PGF1α formation (FIG. 1): varied concentrations, compound alone
Method: Determination of PGE2 and 6-keto PGF1α Formation in Human Whole Blood: Peripheral blood from healthy adult volunteers, who had not received any medication for at least 2 weeks under informed consent, was obtained by venipuncture and collected in a vacutainer blood collection tube containing heparin. Aliquots of whole blood (0.8 ml) were mixed with aspirin (50 μM) and volume was adjusted to 1 ml with PBS containing 6 mM glucose. The blood was incubated with the indicated compounds for 5 mins. at room temperature; and then stimulated with lipopolysaccharide (10 μg/ml) for 18 h at 37° C. Prostanoid formation was stopped on ice and the samples were centrifuged (2300 g, 10 min, 4° C.), and 6-keto PGF1α was quantified in the supernatant using High Sensitivity ELISA Kit for 6-keto PGF1α according to the manufacturer's protocols (Calbiochem). PGE2 was determined after solid-phase extraction, RP-HPLC and an ELISA according to the procedures of Koeberle et al. [J Pharmacol Exp Ther. 2008; 326(3):975-82].
Synergistic interaction between compounds was analyzed by the sensitization method (Harvey, R. J., J. Theor. Biol. 74: 411-437, 1978). Briefly, sensitization is measured as the ratio between observed and expected inhibition of PGE2. The expected level of activity (Ae) is calculated by Aβ=1−((1−A1)*(1−A2)) (^3) where A1 and A2 are the activities of drugs 1 and 2 alone at the concentration used in the combination (Harvey, R. J., J. Theor. Biol. 74: 411-437, 1978).

TNF-α [2] = assay: TNF-α in LPS-stimulated human whole blood (in vitro incubation); type: cell-based; settings: whole human blood stimulated with LPS (FIG. 4)
Method: (§1) Determination of Inflammatory Cytokines (IL-1β & TNF-α) in Human Whole Blood: Blood from healthy adult volunteers was obtained in vacutainer blood collection tubes containing heparin as described above. Aliquots of whole blood (0.2 ml) were diluted with serum-free medium (RPMI-SF) in 24-well culture plates and volume was adjusted to 1 ml. The blood was incubated with the indicated compounds for 5 minutes at room temperature, and then stimulated with lipopolysaccharide (10 μg/ml) for 6 h at 37° C. with 5% CO2. Reaction was stopped on ice, the samples were centrifuged (2300 g, 10 mins., 4° C.), and of Inflammatory Cytokines IL-1β& TNF-α were estimated in the supernatant using High Sensitivity ELISA Kits according to the manufacturer's protocols (R&D Biosystems).

IL-1β = IL-1β in LPS-stimulated human whole blood (in vitro incubation); type: cell-based; settings: whole human blood stimulated with LPS (FIG. 5); read-out: suppression of IL-1 beta, IC50
Method: as §1

TNF-α [3] = assay: Healthy volunteer study: TNF-α in LPS-stimulated blood after ibuprofen dosing; type: in vivo, human; settings: volunteer 1; single oral dose 400 mg ibuprofen; blood 65 minutes after dosing, LPS stimulation (FIG. 3)
Method: as §1
Human Healthy Volunteer Clinical Study: Volunteers with acute or chronic diseases, medical history of gastrointestinal ulcers or allergy to NSAIDs were not included. Volunteers were not permitted to receive any NSAIDs for 2 weeks before and throughout the duration of the study. The study was conducted in an open-label, crossover design with a seven-day washout period between each treatment. Volunteer 1 was given a single oral dose of 400 mg of ibuprofen (Baby Advil Suspension) with 240 mL of water. Administration of the study medication was supervised by the investigator to ensure that the drug had been swallowed. […]

gastric ulcers = settings: ibuprofen 2400 mg/day, daily use for 24 weeks, arthritis patients; cited from earlier work
[4] = Healthy volunteer study: total plasma concentration of ibuprofen by HPLC; type: in vivo, human; settings: SE in parentheses; for concentration at 105 min: plasma
Method: Human Healthy Volunteer Clinical Study: Volunteers with acute or chronic diseases, medical history of gastrointestinal ulcers or allergy to NSAIDs were not included. Volunteers were not permitted to receive any NSAIDs for 2 weeks before and throughout the duration of the study. The study was conducted in an open-label, crossover design with a seven-day washout period between each treatment. Volunteer 1 was given a single oral dose of 400 mg of ibuprofen (Baby Advil Suspension) with 240 mL of water. […] A Blood sample (6 ml), obtained via an indwelling catheter inserted into an arm vein, and was collected into a tube containing heparin immediately prior to an ibuprofen dosing and at the following times thereafter: 65, 105, and 115 mins. after dosing. An aliquot of blood was used for determination of PGE2 and TNF-α after LPS stimulation as described above. Plasma was separated by centrifugation at 1000 g for 10 minutes at room temperature from the remaining blood for ibuprofen assay. After seven days (washout period), the same volunteer was given a single oral dose of 100 mg ibuprofen (Baby Advil Suspension) with 240 mL of water. A 6.0 mL blood sample for the determination of PGE2 and TNF-α after LPS stimulation and for the estimation of plasma levels of ibuprofen were drawn into tubes through an indwelling cannula before dosing and at 75, 125, and 155 mins. after dosing.
Total plasma concentrations of ibuprofen were determined by high-performance liquid chromatography (HPLC.) system that consisted of a Model 510 pump, a Model 486 variable wavelength UV detector and a computer loaded with the Millenium software, all from Waters Associates (Milford, Mas). To 100 μl of plasma was added 100 μl of internal standard solution (naproxen 10 μg/ml in 65% methanol and 1% acetic acid) followed by […]. Following vortex-mixing (30 s) and centrifugation (1000 g, 5 mins.), the supernatant was evaporated to dryness, and reconstituted in 100 μl of 65% methanol and 1% acetic acid immediately prior to injection onto a reversed phase column (ρBondaPak C18) eluted with methanol:1% acetic acid (65:35), pumped at 1.0 ml min. The column eluent was monitored at 210 nm. The height of the ibuprofen peak was divided by the height of the internal standard peak and this ratio was used to determine ibuprofen concentrations from a standard curve of ibuprofen.
A Blood sample (6 ml), immediately prior to dosing and at 105 minutes after dosing was obtained as described above. Production of PGE2, 6-keto PGF1α and TNF-α after LPS stimulation and plasma concentrations were determined as described above.
A blood sample (6 ml), immediately prior to dosing and at 105 min after dosing was obtained as described above. Production of PGE2, 6-keto PGF1α and TNF-α after LPS stimulation and plasma concentrations were determined as described above.

PGE2 = assay: Healthy volunteer crossover study: PGE2 production in LPS-stimulated blood after oral dosing; type: in vivo, human; settings: LPS stimulation
Method: Peripheral blood from healthy adult volunteers, who had not received any medication for at least 2 weeks under informed consent, was obtained by venipuncture and collected in a vacutainer blood collection tube containing heparin. Aliquots of whole blood (0.8 ml) were mixed with aspirin (50 μM) and volume was adjusted to 1 ml with PBS containing 6 mM glucose. The blood was incubated with the indicated compounds for 5 mins. at room temperature; and then stimulated with lipopolysaccharide (10 μg/ml) for 18 h at 37° C. […] PGE2 was determined after solid-phase extraction, RP-HPLC and an ELISA according to the procedures of Koeberle et al. [J Pharmacol Exp Ther. 2008; 326(3):975-82]. Human Healthy Volunteer Clinical Study: Volunteers with acute or chronic diseases, medical history of gastrointestinal ulcers or allergy to NSAIDs were not included. Volunteers were not permitted to receive any NSAIDs for 2 weeks before and throughout the duration of the study. The study was conducted in an open-label, crossover design with a seven-day washout period between each treatment. […] Administration of the study medication was supervised by the investigator to ensure that the drug had been swallowed. […] An aliquot of blood was used for determination of PGE2 and TNF-α after LPS stimulation as described above. […] A Blood sample (6 ml), immediately prior to dosing and at 105 minutes after dosing was obtained as described above. […] A blood sample (6 ml), immediately prior to dosing and at 105 min after dosing was obtained as described above.

6-keto PGF1α = assay: Healthy volunteer crossover study: 6-keto PGF1α production in LPS-stimulated blood after oral dosing; type: in vivo, human; settings: single oral dose, blood 105 min after dosing, LPS stimulation, SE in parentheses
Method: Peripheral blood from healthy adult volunteers, who had not received any medication for at least 2 weeks under informed consent, was obtained by venipuncture and collected in a vacutainer blood collection tube containing heparin. Aliquots of whole blood (0.8 ml) were mixed with aspirin (50 μM) and volume was adjusted to 1 ml with PBS containing 6 mM glucose. The blood was incubated with the indicated compounds for 5 mins. at room temperature; and then stimulated with lipopolysaccharide (10 μg/ml) for 18 h at 37° C. […] PGE2 was determined after solid-phase extraction, RP-HPLC and an ELISA according to the procedures of Koeberle et al. [J Pharmacol Exp Ther. 2008; 326(3):975-82]. […] A Blood sample (6 ml), immediately prior to dosing and at 105 minutes after dosing was obtained as described above. […] A blood sample (6 ml), immediately prior to dosing and at 105 min after dosing was obtained as described above.

[5] = curcumin 10 µM, ibuprofen 20 µM
[6] = Human Volunteer 1, single oral dose, ibuprofen 50 mg (curcumin 200 mg, phosphatidylcholine 400 mg where included), 105 min after dosing
[7] = Human Volunteer 2, single oral dose, ibuprofen 40 mg (curcumin 200 mg, phosphatidylcholine 400 mg where included), 105 min after dosing

- IC50 (IL-1β): 14 µM
SMILES: COc1cc(/C=C/C(=O)CC(=O)/C=C/c2ccc(O)c(OC)c2)ccc1O [Curcumin]
- inhibition of PGE2 formation ([1]; curcumin 3 µM, ibuprofen 4 µM): did not inhibit PGE2 formation
- inhibition of PGE2 formation [1, 5]: no detectable inhibition
- inhibition of PGE2 compared with 6-keto PGF1α formation (FIG. 1) [1]: inhibited PGE2 more potently than 6-keto PGF1α
- suppression of ibuprofen-induced stimulation of TNF-α (TNF-α [2]; curcumin 10 µM co-incubated with ibuprofen 20 µM): suppressed the deleterious stimulation of TNF-α

- Plasma ibuprofen (ug/ml) ([4]; Human Volunteer 1, single oral dose ibuprofen 100 mg): 3.0 (0.5) ug/ml
- Plasma ibuprofen ([4]; Human Volunteer 1, single oral dose ibuprofen 100 mg, listed as ibuprofen): 3.0 µg/mL
- Plasma ibuprofen (ug/ml) ([4]; Human Volunteer 1, single oral dose ibuprofen 400 mg): 44.0 (3.0) ug/ml
- Plasma ibuprofen (ug/ml) [4, 6]: 1.7 (0.15) ug/ml
- Plasma ibuprofen (ug/ml) [4, 7]: 0.42 (0.06) ug/ml
- concentration at 105 min [4, 6]: 1700 ng/mL
- concentration at 105 min [4, 7]: 420 ng/mL
SMILES: CC(C)Cc1ccc(C(C)C(=O)O)cc1 (stereo not shown) [Ibuprofen]
- inhibition of PGE2 formation ([1]; curcumin 3 µM, ibuprofen 4 µM): did not inhibit PGE2 formation
- inhibition of PGE2 formation [1, 5]: 38%
- inhibition of PGE2 compared with 6-keto PGF1α formation (FIG. 1) [1]: inhibited the formation of both the prostanoids PGE2 and 6-keto PGF1α, to about the same extent
- increase in TNF-α after ibuprofen dosing (TNF-α [3]): 3.5 fold
- stimulation of TNF-α (TNF-α [2]; ibuprofen 20 µM and 100 µM alone): dose-dependent stimulation of TNF-α
- incidence of gastric ulcers (gastric ulcers): 22.9%
- PGE2 (% inhibition) (PGE2; Human Volunteer 1, single oral dose ibuprofen 100 mg, SE in parentheses): 71 % inhibition
- PGE2 (% inhibition) (PGE2; Human Volunteer 1, single oral dose ibuprofen 400 mg, SE in parentheses): 88 (2) % inhibition
- PGE2 (% inhibition) (PGE2; Human Volunteer 1, single oral dose ibuprofen 400 mg, SE in parentheses, listed as ibuprofen): about 90 % inhibition
- PGE2 (% inhibition) (PGE2; Human Volunteer 1, single oral dose, ibuprofen 50 mg (curcumin 200 mg, phosphatidylcholine 400 mg where included), blood 105 min after dosing, SE of 3 measurements in parentheses): 56 (3) % inhibition
- PGE2 (% inhibition) (PGE2; Human Volunteer 2, single oral dose, ibuprofen 40 mg (curcumin 200 mg, phosphatidylcholine 400 mg where included), blood 105 min after dosing, SE in parentheses): 29 % inhibition
- 6-keto PGF1α (% inhibition) (6-keto PGF1α; Human Volunteer 1, ibuprofen 50 mg (curcumin 200 mg, phosphatidylcholine 400 mg where included)): 61 (6) % inhibition
- 6-keto PGF1α (% inhibition) (6-keto PGF1α; Human Volunteer 2, ibuprofen 40 mg (curcumin 200 mg, phosphatidylcholine 400 mg where included)): 35 % inhibition

— US20150297534A1, “METHODS AND COMPOSITIONS FOR THE MEDIATION OF NSAID-INDUCED REACTIONS” (NuBioPharma, LLC, priority 2014, published 2015)
